Literature values as cited in US7390507B2, “Compositions and methods for the treatment of radiation burns and other traumatic skin conditions” (priority 2004, dated 2008).

Legend:
[1] = in vivo

In the case of O=C(O)CCCCC1CCSS1 (stereo not drawn) [Alpha-Lipoic Acid], the “effect on skin ageing / wrinkles” value [1] is listed as “some effect”.
For NCCCNCCSP(=O)(O)O [amifostine], the dermato-cytoprotective effect (retrospective analysis) is listed as “significant dermato-cytoprotective effect”.
In the case of O=C1O[C@H]([C@@H](O)CO)C(O)=C1O [topical Vitamin C, Vitamin C], the “improvement in the results of irradiated breast tissue” value (human, in vivo) is given as “without improvement”.
